Test results published in the supplement of paper PMC10307832.

Experiments:
Experiment in all cases: relative viability (nuclei count vs DMSO), 5 days (fraction); higher = more cells survive
Vorinostat + Luminespib = compound: O=C(CCCCCCC(=O)Nc1ccccc1)NO [Vorinostat] + CCNC(=O)c1noc(-c2cc(C(C)C)c(O)cc2O)c1-c1ccc(CN2CCOCC2)cc1 [Luminespib] (partner 0.01 µM)
Procedure, shortened: (§1)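 After 5 days of treatment, lung cancer cells in 1536-well plates were fixed and stained in a single step (final 0.05% Triton X-100, 1% formaldehyde, 1 ug/ml Hoechst) and their nuclei counted on 4× images. Treatment had been applied by pin tool the day after seeding as one drug alone or as a fixed anchor-drug dose with five library-drug doses (not always all listed) in √10 steps. Relative viability is the nuclei count of treated wells divided by that of vehicle wells, and values are medians of duplicate plates.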

Vorinostat + OSI-027 = compound: O=C(CCCCCCC(=O)Nc1ccccc1)NO [Vorinostat] + COc1cccc2cc(-c3nc([C@H]4CC[C@H](C(=O)O)CC4)n4ncnc(N)c34)[nH]c12 [OSI-027] (partner 0.5 µM)
Procedure, shortened: as §1

Vorinostat + Lapatinib = compound: O=C(CCCCCCC(=O)Nc1ccccc1)NO [Vorinostat] + CS(=O)(=O)CCNCc1ccc(-c2ccc3ncnc(Nc4ccc(OCc5cccc(F)c5)c(Cl)c4)c3c2)o1 [Lapatinib] (partner 2 µM)
Procedure, shortened: as §1

Vorinostat + Alpelisib = compound: O=C(CCCCCCC(=O)Nc1ccccc1)NO [Vorinostat] + Cc1nc(NC(=O)N2CCC[C@H]2C(N)=O)sc1-c1ccnc(C(C)(C)C(F)(F)F)c1 [Alpelisib] (partner 2 µM)
Procedure, shortened: as §1

Vorinostat + Decitabine = compound: O=C(CCCCCCC(=O)Nc1ccccc1)NO [Vorinostat] + Nc1ncn([C@H]2C[C@H](O)[C@@H](CO)O2)c(=O)n1 [Decitabine] (partner 2 µM)
Procedure, shortened: as §1

Cell Line	relative viability (Vorinostat + Luminespib; first compound 0.253 µM)	relative viability (Vorinostat + Luminespib; first compound 0.8 µM)	relative viability (Vorinostat + Luminespib; first compound 2.53 µM)	relative viability (Vorinostat + Luminespib; first compound 8 µM)	relative viability (Vorinostat + OSI-027; first compound 0.253 µM)	relative viability (Vorinostat + OSI-027; first compound 0.8 µM)	relative viability (Vorinostat + OSI-027; first compound 2.53 µM)	relative viability (Vorinostat + OSI-027; first compound 8 µM)	relative viability (Vorinostat + Lapatinib; first compound 0.253 µM)	relative viability (Vorinostat + Lapatinib; first compound 0.8 µM)	relative viability (Vorinostat + Lapatinib; first compound 2.53 µM)	relative viability (Vorinostat + Lapatinib; first compound 8 µM)	relative viability (Vorinostat + Alpelisib; first compound 0.253 µM)	relative viability (Vorinostat + Alpelisib; first compound 0.8 µM)	relative viability (Vorinostat + Alpelisib; first compound 2.53 µM)	relative viability (Vorinostat + Alpelisib; first compound 8 µM)	relative viability (Vorinostat + Decitabine; first compound 0.253 µM)	relative viability (Vorinostat + Decitabine; first compound 0.8 µM)	relative viability (Vorinostat + Decitabine; first compound 2.53 µM)	relative viability (Vorinostat + Decitabine; first compound 8 µM)
HCC-827	0.655	0.641	0.257	0.168	0.923	0.853	0.743	0.259	0.219	0.204	0.155	0.161	1.08	1.04	0.634	0.197	0.344	0.343	0.274	0.213
HOP-62	0.942	0.904	0.396	0.103	0.985	0.649	0.378	0.0983	1.25	0.572	0.516	0.0547	1.25	0.947	0.49	0.0804	0.17	0.209	0.169	0.0871
LC-2-ad	1.11	0.918	0.367	0.208	0.81	0.508	0.206	0.159	0.924	0.67	0.253	0.0672	0.816	0.644	0.0538	0.0781	0.839	0.69	0.469	0.227
LCLC-97TM1	0.819	0.704	0.299	0.122	0.444	0.582	0.249	0.112	–	0.784	1.49	0.115	–	0.26	0.158	0.114	0.236	0.264	0.129	0.0801
LCLC-103H	0.987	0.939	0.185	0.145	0.545	0.502	0.429	0.143	–	–	–	–	1.23	0.97	0.58	0.184	0.715	0.766	0.329	0.363
LK-2	0.207	0.171	0.152	0.132	0.196	0.169	0.117	0.103	1.19	0.673	0.209	0.108	1.07	0.847	0.234	0.125	0.267	0.201	0.089	0.064
LOU-NH91	0.376	0.417	0.329	0.283	0.828	0.62	0.516	0.303	0.843	0.799	0.688	0.346	0.792	0.676	0.452	0.322	0.845	0.854	0.702	0.45
LU99A	0.291	0.26	0.141	0.121	0.352	0.276	0.195	0.164	1.01	0.871	0.315	0.169	0.517	0.395	0.178	0.126	0.949	0.702	0.389	0.156
LXF-289	0.763	0.596	0.299	0.0958	0.969	0.761	0.407	0.0564	0.985	0.859	0.468	0.116	1.1	1.04	0.351	0.0687	0.328	0.37	0.229	0.0489
NCI-H23	0.197	0.25	0.191	0.164	0.595	0.338	0.329	0.118	1.24	1.03	0.344	0.141	0.84	0.707	0.213	0.117	0.299	0.241	0.139	0.155
NCI-H322M	1.25	1.11	0.731	0.28	0.584	0.502	0.32	0.235	0.733	0.608	0.522	0.352	0.93	0.852	0.576	0.296	0.679	1.1	0.622	0.373
NCI-H358	0.429	0.521	0.308	0.126	1.14	0.793	0.189	0.0874	0.642	0.566	0.276	0.199	1.05	0.939	0.226	0.177	0.202	0.196	0.105	0.091
NCI-H441	0.485	0.423	0.194	0.162	0.705	0.576	0.229	0.194	–	–	–	–	0.754	0.616	0.289	0.11	0.223	0.199	0.168	0.104
NCI-H460	0.0445	0.0295	0.0322	0.0199	0.821	0.484	0.0397	0.0148	1.35	0.742	0.0269	0.0111	0.609	0.351	0.0248	0.0089	0.526	0.377	0.0496	0.0202
NCI-H1563	0.587	0.496	0.433	0.416	0.787	0.692	0.577	0.549	1.01	0.796	0.403	0.564	0.93	0.8	0.642	0.555	–	–	–	–
NCI-H1703	–	–	–	–	–	–	–	–	1.64	1.49	1.02	0.247	0.469	0.525	0.594	0.156	–	–	–	–
NCI-H2228	0.138	0.172	0.168	0.113	0.767	0.452	0.203	0.0986	1.34	0.519	0.261	0.122	0.945	0.461	0.184	0.113	–	–	–	–
SW 900	0.172	0.161	0.16	0.133	0.49	0.472	0.227	0.0866	–	–	–	–	–	–	–	–	0.34	0.351	0.23	0.159
